Measured values: ChEMBL document CHEMBL5465560, “Selectivity Literature for EUbOPEN Chemogenomic Library” (2024)

Experiments:
[1] = system: eIF-2-alpha kinase GCN2 (Homo sapiens), Q9P2K8 [S808G]; conditions: at 10 µM
[2] = target: T1, Serine/threonine-protein kinase haspin (Homo sapiens) (UniProt Q8TF76); test: Selectivity interaction (Ambit KINOMEscan and KiNATiv profiling in Jurkat cells) EUB0000090b GSG2; assay type: cell-based; conditions: at 1 µM
T1 sequence (whole entry): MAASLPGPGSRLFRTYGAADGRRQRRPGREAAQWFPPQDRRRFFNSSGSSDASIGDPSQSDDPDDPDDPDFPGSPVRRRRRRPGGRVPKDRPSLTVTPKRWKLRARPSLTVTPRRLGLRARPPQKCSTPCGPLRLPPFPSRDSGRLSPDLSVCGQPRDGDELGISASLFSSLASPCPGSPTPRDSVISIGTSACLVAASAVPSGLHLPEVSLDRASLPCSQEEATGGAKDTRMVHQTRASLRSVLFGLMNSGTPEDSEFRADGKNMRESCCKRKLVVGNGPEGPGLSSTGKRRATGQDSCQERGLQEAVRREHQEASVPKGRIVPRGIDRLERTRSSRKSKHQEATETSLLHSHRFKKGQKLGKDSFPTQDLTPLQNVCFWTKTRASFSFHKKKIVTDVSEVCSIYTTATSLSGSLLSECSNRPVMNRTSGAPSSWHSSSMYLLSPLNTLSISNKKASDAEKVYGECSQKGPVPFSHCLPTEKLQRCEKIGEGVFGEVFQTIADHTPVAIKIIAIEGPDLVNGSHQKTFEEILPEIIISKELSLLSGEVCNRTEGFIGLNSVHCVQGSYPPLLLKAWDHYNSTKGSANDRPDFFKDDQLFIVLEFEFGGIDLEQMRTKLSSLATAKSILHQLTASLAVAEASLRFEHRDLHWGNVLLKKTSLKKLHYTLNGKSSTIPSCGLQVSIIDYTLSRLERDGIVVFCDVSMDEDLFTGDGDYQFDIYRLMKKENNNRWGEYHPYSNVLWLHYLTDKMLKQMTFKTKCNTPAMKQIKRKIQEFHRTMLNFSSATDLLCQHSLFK

[3] = target: T2, Inhibitor of nuclear factor kappa-B kinase subunit alpha (Homo sapiens) (UniProt O15111); test: Selectivity interaction (KinomeScan (DiscoverX)) EUB0000695a CHUK; conditions: at 100 nM
T2 sequence (whole entry): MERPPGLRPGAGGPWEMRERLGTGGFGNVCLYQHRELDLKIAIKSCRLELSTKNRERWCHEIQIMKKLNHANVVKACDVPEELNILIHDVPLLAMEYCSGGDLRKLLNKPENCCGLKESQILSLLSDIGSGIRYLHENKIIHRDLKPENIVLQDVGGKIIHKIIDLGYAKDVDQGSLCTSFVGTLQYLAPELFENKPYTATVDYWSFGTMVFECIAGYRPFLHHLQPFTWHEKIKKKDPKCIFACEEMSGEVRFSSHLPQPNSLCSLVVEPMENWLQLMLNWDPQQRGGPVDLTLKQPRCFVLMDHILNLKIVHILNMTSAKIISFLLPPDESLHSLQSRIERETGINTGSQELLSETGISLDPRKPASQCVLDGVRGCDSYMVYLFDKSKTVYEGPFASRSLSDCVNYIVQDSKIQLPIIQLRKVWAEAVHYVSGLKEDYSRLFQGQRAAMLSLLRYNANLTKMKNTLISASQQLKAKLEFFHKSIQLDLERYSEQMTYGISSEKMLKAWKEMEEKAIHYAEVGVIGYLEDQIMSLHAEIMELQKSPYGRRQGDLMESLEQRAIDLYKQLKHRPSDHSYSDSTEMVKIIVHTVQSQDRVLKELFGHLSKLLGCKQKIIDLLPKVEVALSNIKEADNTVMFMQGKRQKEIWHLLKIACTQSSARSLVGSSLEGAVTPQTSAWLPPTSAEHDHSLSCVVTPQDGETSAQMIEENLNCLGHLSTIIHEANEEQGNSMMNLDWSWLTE

[4] = target: T3, Serine/threonine-protein kinase RIO3 (Homo sapiens) (UniProt O14730); test: Selectivity interaction (KinomeScan (DiscoverX)) EUB0000092b RIOK3; conditions: at 10 µM
T3 sequence (whole entry): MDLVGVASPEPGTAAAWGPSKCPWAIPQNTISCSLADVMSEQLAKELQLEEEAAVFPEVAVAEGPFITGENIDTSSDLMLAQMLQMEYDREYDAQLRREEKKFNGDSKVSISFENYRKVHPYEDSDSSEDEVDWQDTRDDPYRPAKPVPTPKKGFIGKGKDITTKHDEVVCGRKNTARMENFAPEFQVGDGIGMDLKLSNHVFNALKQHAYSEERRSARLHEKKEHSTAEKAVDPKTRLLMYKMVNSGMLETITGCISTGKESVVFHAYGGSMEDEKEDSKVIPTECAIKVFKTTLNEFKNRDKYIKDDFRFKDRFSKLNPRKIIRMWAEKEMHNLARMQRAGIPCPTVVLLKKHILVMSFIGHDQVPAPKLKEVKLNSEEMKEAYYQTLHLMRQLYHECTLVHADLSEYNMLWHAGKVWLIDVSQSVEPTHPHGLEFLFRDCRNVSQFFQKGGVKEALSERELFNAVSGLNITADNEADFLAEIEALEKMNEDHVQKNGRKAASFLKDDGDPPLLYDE

[5] = target: cGMP-specific 3',5'-cyclic phosphodiesterase (Homo sapiens) (UniProt O76074); test: Selectivity interaction (Eurofins safety panel) EUB0001564a PDE5A; conditions: at 10 µM
[6] = target: Serine/threonine-protein kinase 24 (Homo sapiens) (UniProt Q9Y6E0); test: Selectivity interaction (SelectScreen profiling (Invitrogen)) EUB0000607a STK24; conditions: at 2 µM
Sequence of Serine/threonine-protein kinase 24 (Homo sapiens) (Q9Y6E0 whole entry, looked up): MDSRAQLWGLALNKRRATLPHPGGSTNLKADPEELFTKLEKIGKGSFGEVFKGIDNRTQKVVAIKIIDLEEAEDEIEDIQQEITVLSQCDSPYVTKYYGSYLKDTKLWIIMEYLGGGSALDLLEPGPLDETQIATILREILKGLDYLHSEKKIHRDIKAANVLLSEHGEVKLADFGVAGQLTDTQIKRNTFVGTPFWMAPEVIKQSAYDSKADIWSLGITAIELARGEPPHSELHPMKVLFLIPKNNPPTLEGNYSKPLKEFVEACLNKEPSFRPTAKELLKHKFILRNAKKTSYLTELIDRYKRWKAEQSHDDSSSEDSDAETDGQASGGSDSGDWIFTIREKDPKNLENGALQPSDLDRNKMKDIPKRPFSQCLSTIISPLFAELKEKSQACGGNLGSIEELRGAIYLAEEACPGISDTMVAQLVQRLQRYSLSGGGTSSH

Sequence of eIF-2-alpha kinase GCN2 (Homo sapiens), Q9P2K8 [S808G] (Q9P2K8 whole entry S808G): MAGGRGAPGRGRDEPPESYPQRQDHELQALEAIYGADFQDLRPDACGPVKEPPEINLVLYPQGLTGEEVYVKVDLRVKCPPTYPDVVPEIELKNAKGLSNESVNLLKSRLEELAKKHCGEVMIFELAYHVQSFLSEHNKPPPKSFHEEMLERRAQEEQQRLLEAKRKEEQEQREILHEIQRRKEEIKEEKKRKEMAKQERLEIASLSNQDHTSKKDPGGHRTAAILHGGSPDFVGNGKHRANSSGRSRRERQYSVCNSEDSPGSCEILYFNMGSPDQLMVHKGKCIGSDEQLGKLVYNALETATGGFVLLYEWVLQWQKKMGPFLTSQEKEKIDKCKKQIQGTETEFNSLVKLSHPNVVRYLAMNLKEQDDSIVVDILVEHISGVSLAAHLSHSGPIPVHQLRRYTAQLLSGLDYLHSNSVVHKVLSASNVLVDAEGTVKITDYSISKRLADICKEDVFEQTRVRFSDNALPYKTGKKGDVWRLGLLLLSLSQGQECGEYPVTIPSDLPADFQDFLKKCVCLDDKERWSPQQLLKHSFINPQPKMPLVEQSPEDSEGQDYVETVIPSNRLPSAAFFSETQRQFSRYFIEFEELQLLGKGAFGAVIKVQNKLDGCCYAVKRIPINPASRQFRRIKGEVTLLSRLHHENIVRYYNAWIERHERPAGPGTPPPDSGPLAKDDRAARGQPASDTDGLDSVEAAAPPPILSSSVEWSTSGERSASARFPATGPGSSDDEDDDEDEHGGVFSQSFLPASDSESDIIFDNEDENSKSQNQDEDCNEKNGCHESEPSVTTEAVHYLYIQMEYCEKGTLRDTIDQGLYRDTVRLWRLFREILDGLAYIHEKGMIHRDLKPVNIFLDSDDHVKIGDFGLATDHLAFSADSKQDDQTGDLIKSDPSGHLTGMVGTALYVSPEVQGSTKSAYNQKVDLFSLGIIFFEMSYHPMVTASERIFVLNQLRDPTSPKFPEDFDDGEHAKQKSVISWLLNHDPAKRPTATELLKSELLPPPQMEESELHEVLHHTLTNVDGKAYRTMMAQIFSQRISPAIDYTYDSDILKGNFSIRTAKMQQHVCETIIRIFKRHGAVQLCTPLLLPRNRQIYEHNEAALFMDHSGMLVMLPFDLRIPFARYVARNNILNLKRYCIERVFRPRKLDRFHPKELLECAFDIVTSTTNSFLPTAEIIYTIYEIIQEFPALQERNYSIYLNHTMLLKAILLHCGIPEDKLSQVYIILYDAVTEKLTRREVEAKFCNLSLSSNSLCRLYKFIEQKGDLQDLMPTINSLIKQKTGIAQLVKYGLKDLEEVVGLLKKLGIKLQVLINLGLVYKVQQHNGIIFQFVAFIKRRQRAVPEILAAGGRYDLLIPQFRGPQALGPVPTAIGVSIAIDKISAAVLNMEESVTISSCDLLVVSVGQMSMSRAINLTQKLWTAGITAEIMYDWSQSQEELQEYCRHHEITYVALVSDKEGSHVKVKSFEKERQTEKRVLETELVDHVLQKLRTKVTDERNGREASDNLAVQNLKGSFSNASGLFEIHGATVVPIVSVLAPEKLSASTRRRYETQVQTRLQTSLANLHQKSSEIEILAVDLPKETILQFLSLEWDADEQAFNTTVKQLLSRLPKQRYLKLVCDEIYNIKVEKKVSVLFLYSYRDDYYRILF

Cc1cc([C@@H](C)Nc2ccccc2C(=O)O)c2nc(N3CCOCC3)cc(=O)n2c1 [AZD-6482]
% of control [1]: 100%

CN(C)C/C=C/C(=O)Nc1ccc(C(=O)N2CCCC(Nc3ncc(Cl)c(-c4c[nH]c5ccccc45)n3)C2)cc1 (stereo unspecified)
% of control [2]: 73%

Cc1cc(F)c(C(=O)Nc2cccc(-c3nncn3C(C)C)n2)cc1-n1cnc(C2CC2)c1
% of control [3]: 100%

CCC(=O)N1CCN(c2ccc(-n3c(=O)ccc4cnc5ccc(-c6cnc7ccccc7c6)cc5c43)cc2C(F)(F)F)CC1
% of control [4]: 90%

CC[C@@H](Nc1c(C#N)c(-c2ccc(-c3cccc(C)c3F)cc2)nc2cnccc12)C(=O)O [BAY-091]
% of inhibition [5]: 62%

CNC(=O)Nc1ccc(-c2nc(N3CC4CCC(C3)O4)c3cnn(C4CCC5(CC4)OCCO5)c3n2)cc1
% of inhibition [6]: -1%
